Test system: gastric cancer patients
Test: Multivariable Cox proportional analysis of overall survival: adjuvant chemotherapy vs surgery only, Yonsei cohort, within each molecular subtype
Type: in vivo
Conditions: multivariate Cox
Text: It has been examined whether the molecular subtype of the present disclosure may predict the response to the systemic therapy. The Yonsei cohort included patients treated prior to establishment of adjuvant chemotherapy as standard of care. Thus, patients who have been treated with one of the following three assisted chemical therapy methods were able to compare patients who have undergone surgery only:
5-Fluorouracil (5-FU) Alone Therapy
5-FU and Platinum Doublet
Treatment of Systemic Therapy of Another Class in Addition to 5-FU
The inventors of the present disclosure performed a multivariable Cox proportional analysis of the overall survival rate, assisted chemical therapy, cancer operation, age, lymphovascular attack and perineuronal attack as covariates within each genetic group.
In Table 3, the hazard ratio (HR) was calculated using age, cancer stage, Lauren type, neural surrounding invasion state, and chemotherapy treatment as a regulator.

O=c1[nH]cc(F)c(=O)[nH]1 [5-FU alone, 5-Fluorouracil]
Hazard Ratio (95% CI) (Patient Group 1, VS no-chemotherapy): 2.25 (0.61, 8.35)
Hazard Ratio (95% CI) (Patient Group 2, VS no-chemotherapy): 0.37 (0.14, 0.99)
Hazard Ratio (95% CI) (Patient Group 2, VS no-chemotherapy, listed as 5-FU monotherapy): 0.37
Hazard Ratio (95% CI) (Patient Group 3, VS no-chemotherapy): 0.99 (0.41, 2.38)
Hazard Ratio (95% CI) (Patient Group 4, VS no-chemotherapy): 0.73 (0.30, 1.79)
